Source: patent publication US12649925B2, “Tissue-specific expression and hybrid plant production” (Dow AgroSciences LLC, priority 2013, dated 2026)

Tests used:
maize tissues = assay: miRNA microarray expression profiling in maize tissues; design: species or system Zea mays
Protocol: miRNA microarray in various maize tissues: Tissues from maize inbred line B104 were used for miRNA profiling. Leaf tissues (at V2, V8 and flag leaf stages); immature tassel tissues (0.5 to 2.5 cm length); mature tassel tissues (tassel visible in the whorl); immature ear tissues (0.5 to 2 cm length); and mature ear tissues (visible ear shoot) were collected and immediately submerged in liquid nitrogen and stored at −80° C. Total RNA and low molecular weight RNAs were extracted using a mirVana™ miRNA isolation kit (INVITROGEN; Carlsbad, CA) following the manufacturer's instructions. RNA quality and quantity were assessed by optical density with a NANODROP 2000 spectrophotometer (THERMO SCIENTIFIC; Wilmington, DE) and by gel electrophoresis. miRNA microarray was performed by a commercial provider (LC SCIENCES; Houston, TX) using μParaflo® microfluidic oligonucleotide microarray technology. Zhou et al., (2012) Methods Mol. Biol. 822:153-82. All unique plant miRNA sequences available in MiRBase™ (mirbase.org) were printed on the arrays and used for miRNA profiling. […]

Maize Immature Embryos = assay: Transient AAD1 expression in immature embryos after particle bombardment, ELISA; assay type: cell-based, Zea mays; settings: 24 hours after particle bombardment
From the text: Zea mays embryos from inbred line B104 that express AAD1 mRNAs having miRNA target sites within the mRNA were produced. Control tissues having no miRNA target sites in the AAD1 mRNA, or having no AAD1 gene expression cassette, were also produced. Other control tissues were produced that had only a YFP gene expression cassette (and no AAD1 construct). Preparations of plant transformation DNA molecules constructed as described in EXAMPLE 2 were delivered into maize B104 immature embryos via particle bombardment transformation.
Plasmid DNAs of pDAB112375, pDAB112376, pDAB112377, pDAB113016, pDAB100286, pDAB112378 and pDAB112330 were isolated and purified from Escherichia coli by standard techniques, and diluted in TE buffer (10 mM Tris HCl plus 1 mM EDTA, pH 8) to 1.0 μg/μL.
Embryo isolation and culture: (Day 1) Surface-sterilized B104 immature ears (10 to 12 days post-pollination) were used for the isolation of embryos. Excised immature embryos from 3 to 4 ears were pooled into 2 mL microfuge tubes containing 2.0 mL liquid medium (LS basal medium (Linsmaier and Skoog, (1965) Physiologia Plantarum 18:100-27) containing CHU N6 vitamins (Chu et al. (1975) Scientia Sinica 18:659-68), 700 mg/L L-Proline, 68.5 gm/L sucrose, 36 gm/L D(+) glucose, and 1.5 mg/L 2,4-D). After embryo isolation, the liquid medium was removed and discarded. Embryos were removed and placed onto plates (40 embryos per plate) containing a semi-solid osmotic medium (MS basal medium (Murashige and Skoog, (1962) Physiologia Plantarum 15:473-497), 2 mg/L Glycine, 500 μg/L Thiamine, 500 μg/L Pyroxidine, 50 μg/L Nicotinic Acid., 120 gm/L sucrose, 100 mg/L myo-inositol, and 2.4 gm/L GELRITE). The embryos were arranged in a […] within the target area for particle bombardment. Three replicate plates were prepared for each construct to be tested. All plates were incubated at 28° C. under continuous low light (50 μEm^−2 sec^−1) for 24 hours prior to particle bombardment.
Coating gold particles with DNA: (Day 2) Tubes of frozen gold particles glycerol stock were thawed on ice for a few minutes, then vortexed for 2 minutes at high speed until a uniform gold suspension was produced. Gold suspension was pipetted into sterile microcentrifuge tubes (50 μL each), with an intermediate vortexing of the particle stock between each tube to maintain a uniform suspension. 2.5 μg each of appropriate plasmid DNAs were included. […]
ELISA quantification of AAD1 and PAT proteins: Enzyme Linked Immunosorbant Assays (ELISAs) were used to measure the production of AAD1 and PAT proteins in maize cells and stably-transformed tissues. […]

Molecule	relative expression levels (maize tissues; Flag Leaf)	relative expression levels (maize tissues; Immature Ear)	relative expression levels (maize tissues; Immature Tassel)	relative expression levels (maize tissues; Leaf V2)	relative expression levels (maize tissues; Leaf V8)	relative expression levels (maize tissues; Mature Ear)	relative expression levels (maize tissues; Mature Tassel)	level higher in immature tassel tissues than in leaves (maize tissues; immature tassel vs leaves)	Mean AAD1 Amount (Maize Immature Embryos; co-bombardment plasmid pDAB112330 (Cry34Ab)) [ng/mL]	Mean AAD1 Amount (Maize Immature Embryos; co-bombardment plasmid pDAB112378 (artificial miRNA)) [ng/mL]
miR156: Zea mays micro-RNA, SEQ ID NO:1 UGACAGAAGAGAGUGAGCAC (expressed or natural sequence)	1657	112	78	4648	1337	1595	2810	–	–	–
miR319: micro-RNA, SEQ ID NO:3 UUGGACUGAAGGGUGCUCCC (expressed or natural sequence)	16	3905	2078	13	8	4616	1566	–	–	–
miR529: Zea mays micro-RNA, SEQ ID NO:2 AGAAGAGAGAGAGUACAGCCU (expressed or natural sequence)	30	90	3174	199	34	1405	1512	16- to 100 fold	–	–
pDAB112375: Transient transformation construct: ZmUbilv2/AAD1 v3/native WT miR529-156 site/ZmPer5 3′UTR (SEQ ID NO:6) (nucleic acid, pDAB112375 expression cassette; (918)..(952) native tsh4 miR529-156 target site; (967)..(1331) ZmPer5 3′UTR) DNA: ATGGCTCATGCTGCCCTCAGCCCTCTCTCCCAACGCTTTGAGAGAATAGCTGTCCAGCCACTCACTGGTGTCCTTGGTGCTGAGATCACTGGAGTGGACTTGAGGGAACCACTTGATGACAGCACCTGGAATGAGATATTGGATGCCTTCCACACTTACCAAGTCATCTACTTTCCTGGCCAAGCAATCACCAATGAGCAGCACATTGCATTCTCAAGAAGGTTTGGACCAGTTGATCCAGTGCCTCTTCTCAAGAGCATTGAAGGCTATCCAGAGGTTCAGATGATCCGCAGAGAAGCCAATGAGTCTGGAAGGGTGATTGGTGATGACTGGCACACAGACTCCACTTTCCTTGATGCACCTCCAGCTGCTGTTGTGATGAGGGCCATAGATGTTCCTGAGCATGGCGGAGACACTGGGTTCCTTTCAATGTACACAGCTTGGGAGACCTTGTCTCCAACCATGCAAGCCACCATCGAAGGGCTCAACGTTGTGCACTCTGCCACACGTGTGTTCGGTTCCCTCTACCAAGCACAGAACCGTCGCTTCAGCAACACCTCAGTCAAGGTGATGGATGTTGATGCTGGTGACAGAGAGACAGTCCATCCCTTGGTTGTGACTCATCCTGGCTCTGGAAGGAAAGGCCTTTATGTGAATCAAGTCTACTGTCAGAGAATTGAGGGCATGACAGATGCAGAATCAAAGCCATTGCTTCAGTTCCTCTATGAGCATGCCACCAGATTTGACTTCACTTGCCGTGTGAGGTGGAAGAAAGACCAAGTCCTTGTCTGGGACAACTTGTGCACCATGCACCGTGCTGTTCCTGACTATGCTGGCAAGTTCAGATACTTGACTCGCACCACAGTTGGTGGAGTTAGGCCTGCCCGCTGAGTAGTTAGCTTAATCACCTAGAGCTCGACTCCAGCTGTGCTCTCTCTCTTCTGTCAACTCAGGTAACCTTTAAACTGAGGGCACTGAAGTCGCTTGATGTGCTGAATTGTTTGTGATGTTGGTGGCGTATTTTGTTTAAATAAGTAAGCATGGCTGTGATTTTATCATATGATCGATCTTTGGGGTTTTATTTAACACATTGTAAAATGTGTATCTATTAATAACTCAATGTATAAGATGTGTTCATTCTTCGGTTGCCATAGATCTGCTTATTTGACCTGTGATGTTTTGACTCCAAAAACCAAAATCACAACTCAATAAACTCATGGAATATGTCCACCTGTTTCTTGAAGAGTTCATCTACCATTCCAGTTGGCATTTATCAGTGTTGCAGCGGCGCTGTGCTTTGTAACATAACAATTGTTACGGCATATATCCAA	–	–	–	–	–	–	–	–	58	51
